# According to PubChem BioAssay (NCI):
# Several values for one entry are separate records, joined by “and”; a condition that tells them apart may be missing. Equal entries are not always repeated.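 48-hour exposure; five concentrations; linearly interpolated endpoints. GI50: concentration for 50% inhibition of growth. TGI: total growth inhibition.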
# Tests used:
# Assay in all cases: growth of human tumour cells (NCI), 48 h
# ACHN renal = system: ACHN renal
# BT-549 breast = system: BT-549 breast
# HCT-116 colon = system: HCT-116 colon
# HOP-62 NSCLC = system: HOP-62 NSCLC
# NCI-H23 lung = system: NCI-H23 lung
# RPMI-8226 leukemia = system: RPMI-8226 leukemia
# SF-539 CNS = system: SF-539 CNS
# SK-OV-3 ovarian = system: SK-OV-3 ovarian
# SR leukemia = system: SR leukemia
# U251 CNS = system: U251 CNS
SMILES,GI50 (ACHN renal) [µM],TGI (ACHN renal) [µM],GI50 (BT-549 breast) [µM],TGI (BT-549 breast) [µM],GI50 (HCT-116 colon),TGI (HCT-116 colon) [µM],GI50 (HOP-62 NSCLC) [µM],TGI (HOP-62 NSCLC) [µM],GI50 (NCI-H23 lung) [µM],TGI (NCI-H23 lung) [µM],GI50 (RPMI-8226 leukemia),TGI (RPMI-8226 leukemia) [µM],GI50 (SF-539 CNS) [µM],TGI (SF-539 CNS) [µM],GI50 (SK-OV-3 ovarian) [µM],TGI (SK-OV-3 ovarian) [µM],GI50 (SR leukemia),TGI (SR leukemia),GI50 (U251 CNS) [µM],TGI (U251 CNS) [µM]
COc1cc(CNc2oc(-c3ccccc3)c(-c3ccccc3)c2C#N)cc(CN2CCN(C)CC2)c1O,1.8,3.19,1.71,3.42,1.55 µM,4.17,1.92,4.21,1.86,3.79,2.23 µM,6.33,1.72,3.16,2.22,4.06,1.6 µM,4.46 µM,1.76,3.58
O=C(Nc1cccc(C(F)(F)F)c1)Oc1ccc(Cl)c2cccnc12,1.23,5.43,0.524,3.69,0.615 µM,8.03,2.99,11,1.48,11.7,0.561 µM,4.22,1.85,7.92,6.64,29.3,0.447 µM,,0.861,8.57
CC(SCc1ccccc1)C(=O)O (stereo not drawn),,> 100,,> 100,,> 100,,> 100,,> 100,,> 100,,> 100,,> 100,,> 100 µM,,> 100
O=c1[nH]c(=O)n(C2CC(O)C(CO)O2)cc1C(F)(F)F (stereo not drawn),1.3,> 100,4.61,> 100,1.7 µM,> 100,3.68,> 100,1.95,> 100,> 20.3 µM,> 100,0.456,7.21,10.1,> 100,1.02 µM,> 100 µM,4.42,> 100
Cc1cc(O)c(-c2ccc([C@@H](C)CN(C)C)cc2)c2c1[nH]c(=O)c1sccc12,0.794,7.95,0.574,3.44,0.406 µM,8.87,0.886,5.57,1.06,6.41,0.427 µM,2.74,0.219,1.97,0.332,3.65,0.363 µM,26.6 µM,0.399,17.4
O=C(O)c1ccc(SSc2ccc(C(=O)O)cn2)nc1,,> 100,,> 100,,> 100,,> 100,,> 100,,> 100,,> 100,,> 100,,> 100 µM,,> 100
CNC(=O)c1cncc(/C=C/c2ccccc2Cl)c1,> 25,> 25,> 25,> 25,> 25 µM,> 25,> 25,> 25,> 25,> 25,> 25 µM,> 25,> 25,> 25,> 25,> 25,> 22.9 µM,> 25 µM,> 25,> 25
COC(=O)[C@H](Cc1cn(C)cn1)NC(=O)[C@H](Cc1ccccc1)NC(=O)Nc1cc(C(F)(F)F)cc(C(F)(F)F)c1,17.2,33.4,19.2,34.5,3.1 µM and 3.54 µM,10.9,17.5,31.9,17.4,33,7.49 µM and 11 µM,31.5,17.2,33,19.2,33.3,2.54 µM and 2.21 µM,6.07 µM and 5.05 µM,11.9,24.6
N#Cc1cccc(C2C3=C(COC3=O)N(CCO)c3cc4c(cc32)OCO4)c1 (stereo not drawn),3.53,> 50,1.98,> 50,1.43 µM,> 50,2.1,> 50,3.58,> 50,1.79 µM,> 50,1.53,8.52,2.08,> 50,0.313 µM,> 50 µM,2.3,> 50
C[C@]12C[C@H](O)[C@H]3[C@@H](CCC4=CC(=O)CC[C@@]43C)[C@@H]1CC[C@@H]2c1csc(-c2ccccc2)n1,,> 100,,> 100,,> 100,,> 51.3,,> 100,,> 100,,> 100,,> 100,,> 100 µM,,> 71.4
C=C1C(=O)O[C@H]2C[C@@H]1C(=O)CC(C)CCCC(C)=CCC[C@@]2(C)O (stereo partly drawn),,> 25,,> 25,,> 25,,> 25,,> 25,,> 25,,> 25,,> 25,,> 25 µM,,> 25
NC(Cc1ccccc1)c1nccs1 (stereo not drawn),,> 100,,> 100,,> 100,,> 100,,> 100,,> 100,,> 100,,> 100,,> 100 µM,,> 100
COc1cc2nccc(Oc3ccc(NC(=O)c4cn(C(C)C)c(=O)n(-c5ccc(F)cc5)c4=O)cc3F)c2cc1OC,2.69,> 26.3,3.29,11.3,5.4 µM,> 100,> 69.4,> 100,> 100,> 100,> 100 µM,> 100,1.6,3.38,> 100,> 100,> 100 µM,> 100 µM,> 100,> 100
CCN(Cc1c(F)cccc1Cl)c1ccc(CO)c(Cl)c1,15.1,29.4,16.5,31.2,< 0.0172 µM,12.1,0.174,18.3,13.9,33.8,0.173 µM,22,15.5,29.8,2.52,13,16.5 µM,42.7 µM,,16.6
